The test system of data set [1] is HBV. The experiment in a line: anti HBV activity, HepG2.117 inducibly HBV producing cell line (Tet-off), intracellular HBV DNA by realtime PCR. Type of data set: cell-based. The note with it: Hepatitis B virus, 72 h, HepG2.117 cells, 3 days of treatment.
Data set [2] is described as follows: ATP based toxicity assay (ATPlite), HepG2 cell line. The note with it: human, HepG2 cells, ATPlite (ATP levels). As for the experimental part:
Alternatively, cytotoxicity was determined via an ATP-assay: The ATPlite kit from Perkin Elmer was used to assess compound cytotoxicity on the HepG2 cell line by determination of the ATP (adenosine triphosphate) levels. ATP is a marker for functional integrity and cell viability, because it is present in all metabolically active cells and any form of cell injury will result in a rapid decline in cellular ATP concentration. After compound incubation, 1 volume of ATPlite solution was added to the cells and the luminescence signal was measured.

For data set [3], the system named is HBV. Briefly: anti-HBV activity, HepG2.2.15 stable transfected cell line, HBV DNA from secreted virions by realtime PCR. As to conditions: Hepatitis B virus, 144 h, HepG2.2.15 cells, 6 days of treatment. Type of data set: cell-based.
Data set [4] is described as follows: Cytotoxicity, HepG2 cells, Resazurin assay. In kind it is cell-based. The note with it: human. Background: Resazurin is reduced to fluorescent resorufin, in cell work by metabolically active cells.

The results in this text go back to patent US11078193B2 (priority 2014, dated 2021).

As a reminder, the EC50 is the concentration giving half of the maximal effect. One may read the CC50 as the concentration giving 50% cytotoxicity. Lower therefore signals harm at low concentration.

As to `C[C@@H](NS(=O)(=O)c1cn(C)c(C(=O)Nc2ccnc(C(F)F)c2F)c1F)C(C)(F)F` [Compound 204, N-[2-(difluoromethyl)-3-fluoro-4-pyridyl]-4-[[(1R)-2,2-difluoro-1-methyl-propyl]sulfamoyl]-3-fluoro-1-methyl-pyrrole-2-carboxamide], a half-maximal effect in data set [1] (EC50) was put at 10 nM. The half-maximal cytotoxic concentration (CC50) at 4 days in data set [2] is above 25000 nM.

In turn, `Cc1c(S(=O)(=O)N[C@H](C)C(F)(F)F)c(F)c(C(=O)Nc2ccnc(C(F)F)c2F)n1C` [Compound 207, N-[2-(difluoromethyl)-3-fluoro-4-pyridyl]-3-fluoro-1,5-dimethyl-4-[[(1R)-2,2,2-trifluoro-1-methyl-ethyl]sulfamoyl]pyrrole-2-carboxamide] had a concentration giving a half-maximal response (EC50) in data set [1] of 10 nM. In data set [2], this compound yielded a half-maximal cytotoxic concentration (CC50) at 4 days above 25000 nM.

Turning to `C[C@@H](NS(=O)(=O)c1cn(C)c(C(=O)Nc2cnc(F)c(Br)c2)c1Cl)C(F)(F)F` [Compound 34, N-(5-bromo-6-fluoro-3-pyridyl)-3-chloro-1-methyl-4-[[(1R)-2,2,2-trifluoro-1-methyl-ethyl]sulfamoyl]pyrrole-2-carboxamide], the EC50 in data set [3] was determined as 50 nM; in data set [1], 100 nM. The compound also came in with a CC50 at 4 days in data set [4] above 25000 nM.

In the case of `C[C@@H](NS(=O)(=O)c1cn(C)c(C(=O)Nc2cnc(F)c(Br)c2)c1F)C(F)(F)F` [Compound 29, N-(5-bromo-6-fluoro-3-pyridyl)-3-fluoro-1-methyl-4-[[(1R)-2,2,2-trifluoro-1-methyl-ethyl]sulfamoyl]pyrrole-2-carboxamide], the results for the EC50 in data set [3] and in data set [1] were 40 nM and 60 nM, respectively. The compound further gave a CC50 at 4 days in data set [4] above 25000 nM.

Regarding `CC[C@H](NS(=O)(=O)c1cc(C(=O)Nc2ccnc(C#N)c2)n(C)c1)C(F)(F)F` [Compound 41, N-(2-cyano-4-pyridyl)-1-methyl-4-[[(1S)-1-(trifluoromethyl)propyl]-sulfamoyl]pyrrole-2-carboxamide], the figures for the EC50 in data set [3] and in data set [1] were 70 nM and 100 nM, respectively. The compound further returned a half-maximal cytotoxic concentration (CC50) at 4 days in data set [4] above 25000 nM.

Regarding `C[C@@H](NS(=O)(=O)c1cn(C)c(C(=O)Nc2ccnc(Cl)c2F)c1F)C(C)(F)F` [Compound 125, N-(2-chloro-3-fluoro-4-pyridyl)-4-[[(1R)-2,2-difluoro-1-methyl-propyl]sulfamoyl]-3-fluoro-1-methyl-pyrrole-2-carboxamide], the EC50 is below 100 nM in data set [3] and 8 nM in data set [1]. The compound further gave a half-maximal cytotoxic concentration (CC50) at 4 days in data set [4] above 25000 nM.

`C[C@@H](NS(=O)(=O)c1cn(C)c(C(=O)Nc2ccnc(Cl)c2F)c1F)C(F)(F)F` [Compound 118, N-(2-chloro-3-fluoro-4-pyridyl)-3-fluoro-1-methyl-4-[[(1R)-2,2,2-trifluoro-1-methyl-ethyl]sulfamoyl]pyrrole-2-carboxamide]: the concentration giving a half-maximal response (EC50) was found to be 100 nM in data set [3] and 10 nM in data set [1]. In data set [4], the 50% cytotoxic concentration (CC50) at 4 days is above 25000 nM.

Turning to `Cn1cc(S(=O)(=O)NC2(C(F)(F)F)CC2)c(Cl)c1C(=O)Nc1ccnc(C#N)c1` [Compound 39, 3-chloro-N-(2-cyano-4-pyridyl)-1-methyl-4-[[1-(trifluoromethyl)cyclopropyl]-sulfamoyl]pyrrole-2-carboxamide], the half-maximal effective concentration (EC50) in data set [3] and in data set [1] was 90 nM each time. In data set [4], this compound came in with a CC50 at 4 days above 25000 nM.

Regarding `C[C@@H](NS(=O)(=O)c1cn(C)c(C(=O)Nc2ccnc(C(F)(F)F)c2)c1F)C(F)(F)F` [Compound 21, 3-fluoro-1-methyl-[[(1R)-2,2,2-trifluoro-1-methyl-ethyl]sulfamoyl]-N-[2-(trifluoromethyl)-4-pyridyl]pyrrole-2-carboxamide], the concentration for a half-maximal effect (EC50) was 40 nM in data set [3] and 30 nM in data set [1]. This compound also yielded a CC50 at 4 days in data set [4] above 25000 nM.

Regarding `C[C@@H](NS(=O)(=O)c1cn(C)c(C(=O)Nc2ccnc(C(F)(F)F)c2)c1F)C(C)(F)F` [Compound 60, 4-[[(1R)-2,2-difluoro-1-methyl-propyl]sulfamoyl]-3-fluoro-1-methyl-N-[2-(trifluoromethyl)-4-pyridyl]pyrrole-2-carboxamide], the EC50 in data set [3] came out at 240 nM; in data set [1], 40 nM. The CC50 at 4 days in data set [4] is above 25000 nM.

Turning to `C[C@@H](NS(=O)(=O)c1cn(C)c(C(=O)Nc2ccnc(C#N)c2F)c1Cl)C(F)(F)F` [Compound 143, 3-chloro-N-(2-cyano-3-fluoro-4-pyridyl)-1-methyl-4-[[(1R)-2,2,2-trifluoro-1-methyl-ethyl]sulfamoyl]pyrrole-2-carboxamide], the values for the EC50 in data set [3] and in data set [1] were 180 nM and 20 nM, respectively. The same compound displayed a CC50 at 4 days in data set [4] above 25000 nM.

Turning to `Cn1cc(S(=O)(=O)NC2(C)CC(F)(F)C2)c(Cl)c1C(=O)Nc1ccnc(Cl)c1` [Compound 65, 3-chloro-N-(2-chloro-4-pyridyl)-4-[(3,3-difluoro-1-methyl-cyclobutyl)-sulfamoyl]-1-methyl-pyrrole-2-carboxamide], the concentration giving a half-maximal response (EC50) in data set [3] was 20 nM; in data set [1] it was 30 nM. This compound displayed a CC50 at 4 days in data set [4] above 25000 nM.

With `Cn1cc(S(=O)(=O)NC2(C)CC(F)(F)C2)c(Cl)c1C(=O)Nc1ccnc(F)c1` [Compound 116, 3-chloro-4-[(3,3-difluoro-1-methyl-cyclobutyl)sulfamoyl]-N-(2-fluoro-4-pyridyl)-1-methyl-pyrrole-2-carboxamide], the concentration giving a half-maximal response (EC50) in data set [3] is 210 nM; in data set [1], 20 nM. Moreover, the CC50 at 4 days in data set [4] is above 25000 nM.

Turning to `CC[C@@H](NS(=O)(=O)c1cn(C)c(C(=O)Nc2ccnc(C#N)c2)c1F)C(F)(F)F` [Compound 31, N-(2-cyano-4-pyridyl)-3-fluoro-1-methyl-4-[[(1R)-1-(trifluoromethyl)propyl]-sulfamoyl]pyrrole-2-carboxamide], the results for the EC50 in data set [3] and in data set [1] were 30 nM and 40 nM, respectively. The CC50 at 4 days in data set [4] was above 25000 nM.

On to `Cc1cc(NC(=O)c2c(Cl)c(S(=O)(=O)N[C@H](C)C(F)(F)F)cn2C)cnc1F` [Compound 13, 3-Chloro-N-(6-fluoro-5-methylpyridin-3-yl)-1-methyl-4-{[(1R)-2,2,2-trifluoro-1-methylethyl]sulfamoyl}-1H-pyrrole-2-carboxamide], for which the values for the concentration giving a half-maximal response (EC50) in data set [3] and in data set [1] were 110 nM and 180 nM, respectively. The cytotoxic concentration (CC50) at 4 days in data set [4] was above 25000 nM.

As to `Cn1cc(S(=O)(=O)NC2(C)COC2)cc1C(=O)Nc1cncc(C(F)(F)F)c1` [Compound 2, 1-Methyl-4-[(3-methyloxetan-3-yl)sulfamoyl]-N-[5-(trifluoromethyl)pyridin-3-yl]-1H-pyrrole-2-carboxamide], the EC50 in data set [3] is above 1000 nM; in data set [1] it was 10400 nM. The same compound came in with a half-maximal cytotoxic concentration (CC50) at 4 days in data set [4] above 25000 nM.

As for `Cc1cc(NC(=O)c2c(Cl)c(S(=O)(=O)N[C@H](C)C(F)(F)F)cn2C)cc(F)n1` [Compound 137, 3-chloro-N-(2-fluoro-6-methyl-4-pyridyl)-1-methyl-4-[[(1R)-2,2,2-trifluoro-1-methyl-ethyl]sulfamoyl]pyrrole-2-carboxamide], the values for the EC50 in data set [3] and in data set [1] were below 100 nM and 20 nM, respectively. This compound also returned a cytotoxic concentration (CC50) at 4 days in data set [4] above 25000 nM.

Take `Cc1cc(NC(=O)c2cc(S(=O)(=O)NC3(C)COC3)cn2C)cnc1F` [Compound 3, N-(6-Fluoro-5-methylpyridin-3-yl)-1-methyl-4-[(3-methyloxetan-3-yl)sulfamoyl]-1H-pyrrole-2-carboxamide]: the 50% effective concentration (EC50) in data set [3] is above 1000 nM; in data set [1], 750 nM. In data set [4], this compound displayed a CC50 at 4 days above 25000 nM.

Regarding `C[C@@H](NS(=O)(=O)c1cn(C)c(C(=O)Nc2ccc(F)cn2)c1F)C(F)(F)F` [Compound 28, 3-fluoro-N-(5-fluoro-2-pyridyl)-1-methyl-4-[[(1R)-2,2,2-trifluoro-1-methyl-ethyl]sulfamoyl]pyrrole-2-carboxamide], the results for the EC50 in data set [3] and in data set [1] were 360 nM and 700 nM, respectively. Further, the CC50 at 4 days in data set [4] was above 25000 nM.

For the compound `Cn1cc(S(=O)(=O)NC2(C(F)(F)F)CC2)c(Cl)c1C(=O)Nc1ccnc(Cl)c1` [Compound 45, 3-chloro-N-(2-chloro-4-pyridyl)-1-methyl-4-[[1-(trifluoromethyl)cyclopropyl]-sulfamoyl]pyrrole-2-carboxamide], the 50% effective concentration (EC50) in data set [3] turned out to be 50 nM; in data set [1], 40 nM. The compound also returned a CC50 at 4 days in data set [4] above 25000 nM.

Regarding `C[C@@H](NS(=O)(=O)c1cn(C)c(C(=O)Nc2ccnc(C#N)c2)c1Cl)C(C)(F)F` [Compound 96, 3-chloro-N-(2-cyano-4-pyridyl)-4-[[(1R)-2,2-difluoro-1-methyl-propyl]sulfamoyl]-1-methyl-pyrrole-2-carboxamide], the EC50 in data set [3] and in data set [1] was 40 nM in each case. The CC50 at 4 days in data set [4] was above 25000 nM.

Regarding `Cn1cc(S(=O)(=O)NC2(C)COC2)cc1C(=O)Nc1cc(C(F)(F)F)ccn1` [Compound 4, 1-Methyl-4-[(3-methyloxetan-3-yl)sulfamoyl]-N-[4-(trifluoromethyl)pyridin-2-yl]-1H-pyrrole-2-carboxamide], the EC50 in data set [3] is above 1000 nM; in data set [1], 2340 nM. For the same compound, in data set [4], the CC50 at 4 days was above 25000 nM.

Take `C[C@@H](NS(=O)(=O)c1cn(C)c(C(=O)Nc2cc(F)nc(F)c2)c1F)C(F)(F)F` [Compound 30, N-(2,6-difluoro-4-pyridyl)-3-fluoro-1-methyl-4-[[(1R)-2,2,2-trifluoro-1-methyl-ethyl]sulfamoyl]pyrrole-2-carboxamide]: the results for the concentration for a half-maximal effect (EC50) in data set [3] and in data set [1] were below 100 nM and 10 nM, respectively. In data set [4], the CC50 at 4 days is above 25000 nM.

With `C[C@@H](NS(=O)(=O)c1cn(C)c(C(=O)Nc2ccnc(C(C)(F)F)c2)c1F)C(F)(F)F` [Compound 129, N-[2-(1,1-difluoroethyl)-4-pyridyl]-3-fluoro-1-methyl-4-[[(1R)-2,2,2-trifluoro-1-methyl-ethyl]sulfamoyl]pyrrole-2-carboxamide], the EC50 in data set [3] was 810 nM; in data set [1] it was 400 nM. In data set [4], the cytotoxic concentration (CC50) at 4 days was above 25000 nM.
